{"source": "patent US20080275018A1", "about": "“ANTIBACTERIAL AMIDE-MACROCYCLES V” (AiCuris GmbH & Co. KG, priority 2005, published 2008)", "key": {"S. aureus 133": {"test_system": "S. aureus 133", "test": "Minimum inhibitory concentration (MIC), S. aureus 133", "assay_type": "cell-based, Staphylococcus aureus", "details": "S. aureus 133", "method": "(§1) The minimum inhibitory concentration (MIC) is the minimum concentration of an antibiotic with which the growth of a test microbe is inhibited over 18-24 h. The inhibitor concentration can in these cases be determined by standard microbiological methods (see, for example, The National Committee for Clinical Laboratory Standards. Methods for dilution antimicrobial susceptibility tests for bacteria that grow aerobically; approved standard-fifth edition. NCCLS document M7-A5 [ISBN 1-56238-394-9]. NCCLS, 940 West Valley Road, Suite 1400, Wayne, Pa. 19087-1898 USA, 2000). The test substances are thereby initially provided in 1:2 dilution series into 96-well round-bottom microtiter plates (Greiner) double-concentrated in 50 μl of test medium. The aerobically growing test microbes (e.g. staphylococci and enterococci), which are incubated overnight on Columbia blood agar plates (Becton-Dickinson), are, after resuspension in 0.9% NaCl, adjusted to a microbe count of about 5×10^7 microbes/ml and then diluted 1:150 in cation-adjusted MH medium (test medium). 50 μL of this suspension are pipetted onto the test preparations provided in the microtiter plates. The cultures are incubated at 37° C. for 18-24 hours. For microaerophilically growing microbes (e.g. streptococci), 2% lysed horse blood in the final concentration is added to the medium and the cultures are incubated in the presence of 5% CO2. The lowest substance concentration in each case at which no visible bacterial growth occurs any longer is defined as the MIC and is reported in μg/ml.\n(§2) The minimum inhibitory concentration (MIC) is the minimum concentration of an antibiotic with which the growth of a test microbe is inhibited over 18-24 h. The inhibitor concentration can in these cases be determined by standard microbiological methods (see, for example, The National Committee for Clinical Laboratory Standards. Methods for dilution antimicrobial susceptibility tests for bacteria that grow aerobically; approved standard-fifth edition. NCCLS document M7-A5 [ISBN 1-56238-394-9]. NCCLS, 940 West Valley Road, Suite 1400, Wayne, Pa. 19087-1898 USA, 2000). The MIC of the compounds of the invention is determined in the liquid dilution test on the 96-well microtiter plate scale. The bacterial microbes are cultivated in a minimal medium (18.5 mM Na2HPO4, 5.7 mM KH2PO4, 9.3 mM NH4Cl, 2.8 mM MgSO4, 17.1 mM NaCl, 0.033 μg/ml thiamine hydrochloride, 1.2 μg/ml nicotinic acid, 0.003 μg/ml biotin, 1% glucose, 25 μg/ml of each proteinogenic amino acid with the exception of phenylalanine; [H.-P. Kroll; unpublished]) with the addition of 0.4% BH broth (test medium). In the case of Enterococcus faecium L4001, heat-inactivated fetal calf serum (FCS; GibcoBRL, Germany) is added to the test medium in a final concentration of 10%. Overnight cultures of the test microbes are diluted to an OD578 of 0.001 (to 0.01 in the case of enterococci) in fresh test medium, and incubated 1:1 with dilutions of the test substances (1:2 dilution steps) in test medium ([…]). The cultures are incubated at 37° C. for 18-24 hours; enterococci in the presence of 5% CO2.\n(§3) The lowest substance concentration in each case at which no visible bacterial growth occurs any longer is defined as the MIC.\n(§4) The minimum inhibitory concentration (MIC) is the minimum concentration of an antibiotic with which the growth of a test microbe is inhibited over 18-24 h. The inhibitor concentration can in these cases be determined by standard microbiological methods with modified medium in an agar dilution test (see, for example, The National Committee for Clinical Laboratory Standards. Methods for dilution antimicrobial susceptibility tests for bacteria that grow aerobically; approved standard-fifth edition. NCCLS document M7-A5 [ISBN 1-56238-394-9]. NCCLS, 940 West Valley Road, Suite 1400, Wayne, Pa. 19087-1898 USA, 2000). The bacterial microbes are cultivated on 1.5% agar plates which contain 20% defibrinated horse blood. […]"}, "S. aureus T17": {"test_system": "S. aureus T17", "test": "Minimum inhibitory concentration (MIC), biphenomycin-resistant S. aureus T17", "assay_type": "cell-based, Staphylococcus aureus", "method": "as §1, §2, §3, §4"}, "E. faecium L4001": {"test_system": "E. faecium L4001", "test": "Minimum inhibitory concentration (MIC), E. faecium L4001", "assay_type": "cell-based, Enterococcus faecium", "details": "E. faecium L4001; 10% FCS in test medium", "method": "as §2, §3"}}, "data": [{"smiles": "NC[C@H](O)C[C@@H]1NC(=O)[C@@H](N)Cc2cc(ccc2O)-c2ccc(O)c(c2)C[C@@H](C(=O)O)NC1=O", "note": "[Biphenomycin B, biphenomycin B, reference compound]", "values": [{"measurement": "MIC S. aureus 133", "setting": "S. aureus 133", "result": "<0.03", "unit": "μ/ml"}, {"measurement": "MIC S. aureus T17", "setting": "S. aureus T17; biphenomycin-resistant S. aureus T17", "result": ">32", "unit": "μ/ml"}, {"measurement": "MIC of selected colony (strain T17)", "setting": "S. aureus T17; colony isolated from kidney of mice treated with biphenomycin B", "result": "> 50", "unit": "µM"}, {"measurement": "MIC E. faecium L4001", "setting": "E. faecium L4001", "result": 0.5, "unit": "μ/ml"}]}]}
